US20150335547A1, “ORAL CARE COMPOSITION CONTAINING IONIC LIQUIDS” (priority 2012, published 2015)

Each compound was assayed on biofilm (assay: biofilm removal by ionic liquids (training set for QSFR model)). Conditions: where two values were available (MMPZ MeSO4, EMIM Tosylate) the value obtained at the higher pH.
Assay type: cell-based
Excerpt: The process of QSFR model building involves assembling a dataset with experimental results and molecular structures, descriptor calculation and contingency analysis followed by model generation and validations. Ionic liquids with biofilm removal data served as a data set for model generation. The details of the dataset are shown in Table 1 (ID and biofilm removal data for ionic liquids selected for model generation (training set).
For “1,2,3-trimethylimidazolium methyl sulfate [TMIM MeSO4]”, the “% removal of biofilm” value was 51.8%.
In the case of “1-ethyl-3-methylimidazolium ethylsulphate [EMIM Ethyl SO4]”, the “% removal of biofilm” value is reported as 48.1%.
With `C=CCn1cc[n+](C)c1.[Cl-]` [AMIM Cl, 1-allyl-3-methylimidazolium (AMIM) chloride] the “% removal of biofilm” value was 44.8%.
For `CCCCn1cc[n+](C)c1.[Br-]` [BMIM Br, BMIM bromide (Br)], the “% removal of biofilm” value was 48.0%.
For `CCCCn1cc[n+](C)c1.[Cl-]` [BMIM Cl, 1-butyl-3-methylimidazolium (BMIM) chloride (Cl)], the “% removal of biofilm” value was 43.8%.
`CCCCn1cc[n+](C)c1.COS(=O)(=O)[O-]` [BMIM MeSO4, BMIM methyl sulfate] was tested, and the “% removal of biofilm” value was 53.9%.
In the case of `CCCCCCCCOS(=O)(=O)[O-].CCCCn1cc[n+](C)c1` [BMIM Octyl SO4, BMIM octyl sulfate], the “% removal of biofilm” value is reported as 58.6%.
For `CC(=O)[O-].CCCCn1cc[n+](C)c1` [BMIMOAc, BMIM acetate (OAc)], the “% removal of biofilm” value was 55.9%.
In the case of `CCCCCCCCCCn1cc[n+](C)c1.[Cl-]` [DMIM CL, 1-decyl-3-methylimidazolium (DMIM) chloride], the “% removal of biofilm” value is reported as 57.3%.
With `CCn1cc[n+](C)c1.[Br-]` [EMIM Br, EMIM bromide (Br)] the “% removal of biofilm” value was 48.6%.
In the case of `CCn1cc[n+](C)c1.[Cl-]` [EMIM Cl, 1-ethyl-3-methylimidazolium (EMIM) chloride (Cl)], the “% removal of biofilm” value is reported as 44.3%.
With `CCn1cc[n+](C)c1.Cc1ccc(S(=O)(=O)[O-])cc1` [EMIM Tosylate, EMIM tosylate] the “% removal of biofilm” value was 59.5%.
In the case of `CCOP(=O)([O-])OCC.CCn1cc[n+](C)c1` [EMIM diethyl PO4, EMIM diethyl phosphate], the “% removal of biofilm” value is reported as 52.7%.
With `COS(=O)(=O)[O-].Cc1cn(C)[n+](C)c1` [MMMPz MeSO4, 1,2,4-trimethylpyrazolium (MMMPZ) methyl sulfate] the “% removal of biofilm” value was 57.8%.
In the case of “Tris(2-hydroxyethyl)methylammonium methylsulphate [MTEOA MeSO4]”, the “% removal of biofilm” value is reported as 52.8%.
